Consider 1 compound from article PMC8396542, “Iterated Virtual Screening-Assisted Antiviral and Enzyme Inhibition Assays Reveal the Discovery of Novel Promising Anti-SARS-CoV-2 with Dual Activity” (International Journal of Molecular Sciences, 2021).

One may read the IC50 as the concentration that inhibits the measured activity by half. High values mean weaker potency, low ones greater potency.

For test [1], the target named is T1, SARS-CoV-2 M^pro (3CL Protease, 3CL^pro) (Severe acute respiratory syndrome coronavirus 2, UniProt P0DTD1).
T1 construct: gene rep; untagged enzyme from BPS Bioscience kit; mature main protease nsp5 cut from replicase polyprotein 1ab (pp1a/pp1ab)
The test is described as follows: biochemical.

Test [2] has as its target T2, human furin (Homo sapiens, UniProt P09958).
T2 construct: recombinant furin from BPS Bioscience furin protease assay kit
In words: fluorogenic protease assay. In kind it is biochemical.

Test [3] addresses T3, human TMPRSS2 (Homo sapiens, UniProt O15393).
T3 construct: enzyme from BPS Bioscience TMPRSS2 fluorogenic assay kit
In words: fluorogenic protease assay. Type of test: biochemical.

T3 sequence (O15393 109-492 limits assumed): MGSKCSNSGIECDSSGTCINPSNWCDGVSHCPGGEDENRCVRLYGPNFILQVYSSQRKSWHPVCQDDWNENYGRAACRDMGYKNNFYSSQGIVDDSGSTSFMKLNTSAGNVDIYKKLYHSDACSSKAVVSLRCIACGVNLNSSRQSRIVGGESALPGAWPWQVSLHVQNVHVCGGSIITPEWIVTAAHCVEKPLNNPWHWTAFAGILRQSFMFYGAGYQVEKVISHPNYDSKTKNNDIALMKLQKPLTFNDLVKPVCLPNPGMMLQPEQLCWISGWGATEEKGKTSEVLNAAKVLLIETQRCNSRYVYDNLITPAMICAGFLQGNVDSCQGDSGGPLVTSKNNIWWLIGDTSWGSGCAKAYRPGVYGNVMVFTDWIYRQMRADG
T2 sequence (P09958 108-715): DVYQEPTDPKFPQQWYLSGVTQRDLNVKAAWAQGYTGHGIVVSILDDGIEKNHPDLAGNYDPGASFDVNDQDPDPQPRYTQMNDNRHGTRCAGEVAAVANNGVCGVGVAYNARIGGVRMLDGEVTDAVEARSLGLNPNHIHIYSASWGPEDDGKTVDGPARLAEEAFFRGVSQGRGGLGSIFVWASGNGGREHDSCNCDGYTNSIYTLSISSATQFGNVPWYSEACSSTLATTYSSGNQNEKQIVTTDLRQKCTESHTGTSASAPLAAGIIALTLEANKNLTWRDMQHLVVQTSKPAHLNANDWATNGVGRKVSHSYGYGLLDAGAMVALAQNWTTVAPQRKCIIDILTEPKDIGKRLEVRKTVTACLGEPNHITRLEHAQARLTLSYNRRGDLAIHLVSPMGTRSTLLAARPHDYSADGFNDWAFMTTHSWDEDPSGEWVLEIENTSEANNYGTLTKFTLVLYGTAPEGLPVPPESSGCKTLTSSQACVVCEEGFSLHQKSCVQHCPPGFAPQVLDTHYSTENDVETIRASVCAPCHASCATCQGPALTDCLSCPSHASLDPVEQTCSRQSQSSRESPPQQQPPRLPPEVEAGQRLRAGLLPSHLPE

Take `N=C(N/N=C/c1ccncc1)c1nonc1NCNc1nonc1C(=N)N/N=C/c1ccncc1` [M3]: the values for the IC50 in test [1], in test [2] and in test [3] were 0.013 ± 0.003 µM, 0.09 ± 0.002 µM and 0.05 ± 0.002 µM, respectively.
